Source: patent publication US9745283B2, “Uracil derivatives as AXL and c-MET kinase inhibitors” (priority 2011, dated 2017)

target: recombinant human baculovirus-expressed cMET (Homo sapiens (Human), UniProt P08581); test: C-MET Kinase Assay (HTRF KinEASE); format: biochemical; conditions: average of two or more determinations; read-out: c-MET IC50
Description: The cMET kinase assay was performed in 384-well Fluotrac™ 200 HiBase microplates using the HTRF KinEASE™ assay described above for AXL except that the assay volume was reduced to half. Enzyme concentration was 8 ng/mL of recombinant human baculovirus-expressed cMET while the substrate concentrations were 0.1 μM and 0.02 μM for the biotinylated peptide and ATP, respectively. Instead of the Multidrop Combi, the BioRAPTR® FRD microfluidic workstation (Beckman Coulter, Brea, Calif.) was utilized for reagent additions.
Inhibition curves for compounds were generated by plotting percent control activity versus log 10 of the concentration of compound. IC50 values were calculated by nonlinear regression using the sigmoidal dose-response (variable slope) equation in GraphPad Prism as follows: y=bottom+(top−bottom)/(1+10(log IC50−x)*Hill Slope) where y is the % kinase activity at a given concentration of compound, x is the logarithm of the concentration of compound, bottom is the % of control kinase activity at the highest compound concentration tested, and top is the % of control kinase activity at the lowest compound concentration examined. The values for bottom and top were fixed at 0 and 100, respectively.

Row | SMILES | IC50 [nM]
1 | COc1cc2nccc(Oc3ccc(NC(=O)c4nn(C)c(=O)[nH]c4=O)cc3F)c2cc1OC [Example 114, 2-Methyl-3,5-dioxo-2,3,4,5-tetrahydro-[1,2,4]triazine-6-carboxylic acid [4-(6,7-dimethoxy-quinolin-4-yloxy)-3-fluoro-phenyl]-amide] | 10 to 100
2 | COc1cc2nccc(Oc3ccc(NC(=O)c4nn(C)c(=O)n(Cc5cc(C)on5)c4=O)cc3F)c2cc1OC [Example 116, 2-Methyl-4-(5-methyl-isoxazol-3-ylmethyl)-3,5-dioxo-2,3,4,5-tetrahydro-[1,2,4]triazine-6-carboxylic acid [4-(6,7-dimethoxy-quinolin-4-yloxy)-3-fluoro-phenyl]-amide] | 10 to 100
3 | CCC#CCn1c(=O)c(C(=O)Nc2ccc(Oc3ccnc4cc(OC)c(OC)cc34)c(F)c2)nn(C)c1=O [Example 117, 2-Methyl-3,5-dioxo-4-pent-2-ynyl-2,3,4,5-tetrahydro-[1,2,4]triazine-6-carboxylic acid [4-(6,7-dimethoxy-uinolin-4-yloxy)-3-fluoro-phenyl]-amide] | 101 to 1000
4 | COc1cc2nccc(Oc3ccc(NC(=O)c4nn(C)c(=O)n(CC#CCO)c4=O)cc3F)c2cc1OC [Example 118, 4-(4-Hydroxy-but-2-ynyl)-2-methyl-3,5-dioxo-2,3,4,5-tetrahydro-[1,2,4]triazine-6-carboxylic acid [4-(6,7-dimethoxy-quinolin-4-yloxy)-3-fluoro-phenyl]-amide] | 101 to 1000
5 | COc1cc2nccc(Oc3ccc(NC(=O)c4nn(C)c(=O)n(CCn5cccn5)c4=O)cc3F)c2cc1OC [Example 120, 2-Methyl-3,5-dioxo-4-(2-pyrazol-1-yl-ethyl)-2,3,4,5-tetrahydro-[1,2,4]triazine-6-carboxylic acid [4-(6,7-dimethoxyquinolin-4-yloxy)-3-fluorophenyl]-amide] | 10 to 100
6 | CCn1c(=O)c(C(=O)Nc2ccc(Oc3ccnc4cc(OC)c(OC)cc34)c(F)c2)nn(C)c1=O [Example 123, 4-Ethyl-2-methyl-3,5-dioxo-2,3,4,5-tetrahydro-[1,2,4]triazine-6-carboxylic acid [4-(6,7-dimethoxyquinolin-4-yloxy)-3-fluoro-phenyl]-amide] | 101 to 1000
7 | C=CCn1c(=O)c(C(=O)Nc2ccc(Oc3ccnc4cc(OC)c(OC)cc34)c(F)c2)nn(C)c1=O [Example 124, 4-Allyl-2-methyl-3,5-dioxo-2,3,4,5-tetrahydro-[1,2,4]triazine-6-carboxylic acid [4-(6,7-dimethoxy-quinolin-4-yloxy)-3-fluoro-phenyl]-amide] | 10 to 100
8 | COc1cc2nccc(Oc3ccc(NC(=O)c4nn(CC5CC5)c(=O)n(-c5ccc(F)cc5)c4=O)cc3F)c2cc1OC [Example 133, 2-Cyclopropylmethyl-4-(4-fluorophenyl)-3,5-dioxo-2,3,4,5-tetrahydro-[1,2,4]triazine-6-carboxylic acid [4-(6,7-dimethoxy-quinolin-4-yloxy)-3-fluoro-phenyl]-amide] | 10 to 100
9 | CCn1cc(C(=O)Nc2ccc(Nc3ccnc4cc(OC)c(OC)cc34)cc2)c(=O)n(-c2ccc(F)cc2)c1=O [Example 134, 1-Ethyl-3-(4-fluoro-phenyl)-2,4-dioxo-1,2,3,4-tetrahydro-pyrimidine-5-carboxylic acid [4-(6,7-dimethoxy-quinolin-4-ylamino)-phenyl]-amide] | 101 to 1000
10 | COc1cc2nccc(Nc3ccc(NC(=O)c4cn(C(C)C)c(=O)n(-c5ccc(F)cc5)c4=O)cc3)c2cc1OC [Example 135, 3-(4-Fluorophenyl)-1-isopropyl-2,4-dioxo-1,2,3,4-tetrahydropyrimidine-5-carboxylic acid [4-(6,7-dimethoxyquinolin-4-ylamino)-phenyl]-amide] | 101 to 1000
11 | COc1cc2nccc(Nc3ccc(NC(=O)c4nn(C(C)C)c(=O)n(-c5ccc(F)cc5)c4=O)cc3)c2cc1OC [Example 136, 4-(4-Fluoro-phenyl)-2-isopropyl-3,5-dioxo-2,3,4,5-tetrahydro-[1,2,4]triazine-6-carboxylic acid [4-(6,7-dimethoxy-quinolin-4-ylamino)-phenyl]-amide] | 101 to 1000
12 | CCn1cc(C(=O)Nc2ccc(Sc3ccnc4cc(OC)c(OC)cc34)cc2)c(=O)n(-c2ccc(F)cc2)c1=O [Example 137, 1-Ethyl-3-(4-fluorophenyl)-2,4-dioxo-1,2,3,4-tetrahydro-pyrimidine-5-carboxylic acid [4-(6,7-dimethoxy-quinolin-4-ylsulfanyl)-phenyl]-amide] | 10 to 100
13 | COc1cc2nccc(Sc3ccc(NC(=O)c4cn(C(C)C)c(=O)n(-c5ccc(F)cc5)c4=O)cc3)c2cc1OC [Example 138, 3-(4-Fluoro-phenyl)-1-isopropyl-2,4-dioxo-1,2,3,4-tetrahydro-pyrimidine-5-carboxylic acid [4-(6,7-dimethoxy-quinolin-4-ylsulfanyl)-phenyl]-amide] | 10 to 100
14 | COc1cc2ncnc(Oc3ccc(NC(=O)c4cn(C(C)C)c(=O)n(-c5ccc(F)cc5)c4=O)cc3)c2cc1OC [Example 141, 3-(4-Fluoro-phenyl)-1-isopropyl-2,4-dioxo-1,2,3,4-tetrahydro-pyrimidine-5-carboxylic acid [4-(6,7-dimethoxy-quinazolin-4-yloxy)-phenyl]-amide] | 10 to 100
15 | CCn1cc(C(=O)Nc2ccc(Oc3ncnc4cc(OC)c(OC)cc34)cc2)c(=O)n(-c2ccc(F)cc2)c1=O [Example 142, 1-Ethyl-3-(4-fluorophenyl)-2,4-dioxo-1,2,3,4-tetrahydro-pyrimidine-5-carboxylic acid [4-(6,7-dimethoxy-quinazolin-4-yloxy)-phenyl]-amide] | 10 to 100
16 | CCn1cc(C(=O)Nc2ccc(Oc3ccnc4cc(OC)c(OC)cc34)c(C)c2)c(=O)n(-c2ccc(F)cc2)c1=O [Example 148, 1-Ethyl-3-(4-fluoro-phenyl)-2,4-dioxo-1,2,3,4-tetrahydro-pyrimidine-5-carboxylic acid [4-(6,7-dimethoxy-quinolin-4-yloxy)-3-methyl-phenyl]-amide] | 10 to 100
17 | CCn1cc(C(=O)Nc2ccc(Oc3ccnc4cc(OC)c(OC)cc34)c(Cl)c2)c(=O)n(-c2ccc(F)cc2)c1=O [Example 152] | 10 to 100
18 | COc1cc2nccc(Oc3ccc(NC(=O)c4cn(C(C)C)c(=O)n(-c5ccc(F)cc5)c4=O)c(N(C)C)c3)c2cc1OC [Example 154, 3-(4-Fluoro-phenyl)-1-isopropyl-2,4-dioxo-1,2,3,4-tetrahydro-pyrimidine-5-carboxylic acid [4-(6,7-dimethoxy-quinolin-4-yloxy)-2-dimethylamino-phenyl]-amide] | 101 to 1000
19 | CCn1cc(C(=O)Nc2ccc(Oc3ccnc4cc(OC)c(OC)cc34)c(C(C)C)c2)c(=O)n(-c2ccc(F)cc2)c1=O [Example 155, 1-Ethyl-3-(4-fluoro-phenyl)-2,4-dioxo-1,2,3,4-tetrahydro-pyrimidine-5-carboxylic acid [4-(6,7-dimethoxy-quinolin-4-yloxy)-3-isopropyl-phenyl]-amide] | 10 to 100
20 | COc1cc2nccc(Oc3ccc(NC(=O)c4cn(C(C)C)c(=O)n(-c5ccc(F)cc5)c4=O)cc3C(C)C)c2cc1OC [Example 156, 3-(4-Fluoro-phenyl)-1-isopropyl-2,4-dioxo-1,2,3,4-tetrahydro-pyrimidine-5-carboxylic acid [4-(6,7-dimethoxy-quinolin-4-yloxy)-3-isopropyl-phenyl]-amide] | 10 to 100
21 | CCn1cc(C(=O)Nc2ccc(Oc3ccnc4cc(OC)c(OC)cc34)c(C)c2C)c(=O)n(-c2ccc(F)cc2)c1=O [Example 157, 1-Ethyl-3-(4-fluoro-phenyl)-2,4-dioxo-1,2,3,4-tetrahydro-pyrimidine-5-carboxylic acid [4-(6,7-dimethoxy-quinolin-4-yloxy)-2,3-dimethyl-phenyl]-amide] | 101 to 1000
22 | COc1cc2nccc(Oc3ccc(NC(=O)c4cn(C(C)C)c(=O)n(-c5ccc(F)cc5)c4=O)c(C)c3C)c2cc1OC [Example 158, 3-(4-Fluoro-phenyl)-1-isopropyl-2,4-dioxo-1,2,3,4-tetrahydro-pyrimidine-5-carboxylic acid [4-(6,7-dimethoxy-quinolin-4-yloxy)-2,3-dimethyl-phenyl]-amide] | 101 to 1000
23 | COc1cc2nccc(Oc3ccc(NC(=O)c4cn(C(C)C)c(=O)n(-c5ccc(F)cc5)c4=O)cc3C(F)(F)F)c2cc1OC [Example 160, 3-(4-Fluoro-phenyl)-1-isopropyl-2,4-dioxo-1,2,3,4-tetrahydro-pyrimidine-5-carboxylic acid [4-(6,7-dimethoxy-quinolin-4-yloxy)-3-trifluoromethyl-phenyl]-amide] | 101 to 1000
24 | CCn1cc(C(=O)Nc2cc(C)c(Oc3ccnc4cc(OC)c(OC)cc34)c(C)c2)c(=O)n(-c2ccc(F)cc2)c1=O [Example 161, 1-Ethyl-3-(4-fluoro-phenyl)-2,4-dioxo-1,2,3,4-tetrahydro-pyrimidine-5-carboxylic acid [4-(6,7-dimethoxy-quinolin-4-yloxy)-3,5-dimethyl-phenyl]-amide] | 10 to 100
25 | COc1cc2nccc(Oc3c(C)cc(NC(=O)c4cn(C(C)C)c(=O)n(-c5ccc(F)cc5)c4=O)cc3C)c2cc1OC [Example 162, 3-(4-Fluoro-phenyl)-1-isopropyl-2,4-dioxo-1,2,3,4-tetrahydro-pyrimidine-5-carboxylic acid [4-(6,7-dimethoxy-quinolin-4-yloxy)-3,5-dimethyl-phenyl]-amide] | 10 to 100
